The source of these data is patent US11400131B2, “Multi-peptide composition” (King's College London, priority 2015, dated 2022).

Test [1] deals with peripheral blood mononuclear cells. As to the kind of experiment: IFN-γ ELISPOT response of Type 1 diabetes patients to nested IA-2 peptides. It is filed as cell-based, human. Particulars: nested peptides compared with parental sequences; response positive when SI ≥3; FIG. 1. The method, then:
Detection of interferon (IFN)-γ by CD4^+ T cells in response to peptide stimulation was carried out using an enzyme-linked immunospot (ELISPOT) assay that has significant discriminative ability for type 1 diabetes in blinded proficiency testing, as previously described (Arif, S. et al. J Clin Invest 2004; 113: 451-463 and Herold, K. C. et al. Diabetes 2009; 58: 2588-2595). Data are expressed as the mean number of spots per triplicate and compared with the mean spot number in the presence of diluent alone (stimulation index; SI). A response is considered positive when the SI is ≥3 using cut-offs determined using receiver-operator characteristic plots as previously described (Arif, S. et al. J Clin Invest 2004; 113: 451-463).
The results are shown for 3 parental sequences (cross-hatched), and these are compared with shorter nested sequence peptides. Responses represent IFN-γ production by peripheral blood mononuclear cells cultured with each peptide, as detected using an enzyme-linked immunospot assay.

In the next test the test system is proinsulin. The experiment in a line: Serum proinsulin specific IgG after mono-/multi-PI treatment. Particulars: 4 weekly intradermal injections of individual peptide; FIG. 4E-F. It is filed as in vivo, HLA-DR4-Tg mice. The method, then:
In brief, tolerance to proinsulin was breached in mice by subcutaneous immunisation with 100 μg proinsulin protein emulsified in CFA and treatment with intraperitoneal pertussis toxin immediately and 1 day after immunisation. Mice then received 4 weekly intradermal treatments of 10 μg control-PI or proinsulin mono/multi-PI (C13-32 (SEQ ID NO: 4); C19-A3 (SEQ ID NO: 5); C22-A5 (SEQ ID NO:6)), before subcutaneous immunisation with 100 μg proinsulin protein emulsified in IFA to boost the ongoing autoimmune response (A). Lymph nodes (LNs) were harvested 7 days later and LN cell suspensions were cultured with or without proinsulin protein or peptide (C13-32; C19-A3; C22-A5) for 48 hours in vitro. Proliferation of CD4^+ T cells and IFN-γ production were analysed by CFSE dilution at 96 hours (B) and ELISA at 48 hours (C) in response to in vitro stimulation with 50 μg/mL proinsulin protein and 10 μg/mL peptides (C13-32; C19-A3; C22-A5). Serum levels of proinsulin specific IgG1 were measured at day 42 (D). Percentages of proliferating CD3^+CD4^+CD25^highFoxP3^+ Tregs were measured by flow cytometry in LN cultures at day 42 (E). Data are representative of three independent experiments. *p<0.05, **p<0.01, ***p<0.001; Statistical significance was determined by one-way ANOVA or Student's t test. 15 mice per group in B and C; 5 mice per group D-F.
Tolerance to proinsulin was breached in mice by subcutaneous immunisation with 100 μg proinsulin protein emulsified in CFA and treatment with intraperitoneal pertussis toxin immediately and 1 day after immunisation. […] Proliferation and cytokine production were analysed by thymidine incorporation and ELISA and the mean±SEM proliferation in response to 50 μg/mL proinsulin (B) and IFN-γ production in response to 50 μg/mL proinsulin (C) or 10 μg/mL proinsulin peptides, in DLN cultures is shown. Percentage of proliferating CD3^+CD4^+CD25^highFoxP3^+ Tregs was measured by flow cytometry in LN cultures at day 42 (E). Serum levels of proinsulin specific IgG1 were measured at day 42 (F). […]

With “718-36: fragment of IA-2, comprising residues 718-736 (AYQAEPNTCATAQGEGNIK; listed as Homo sapiens) [Group 718-36]”, the “proportion of Type 1 diabetes patients responding (IFN-γ production)” value in test [1] is “preferential sequences”.
Regarding “855-67: fragment of IA-2, comprising residues 855-867 (YLKNVQTQETRTL; listed as Homo sapiens) [Group 855-67]”, the “proportion of Type 1 diabetes patients responding (IFN-γ production)” value in test [1] is reported as “preferential sequences”.
Regarding “C13-32: fragment of PI, comprising residues C13-C32 (GGGPGAGSLQPLALEGSLQK; listed as Homo sapiens) [Group C13-32]”, in the test with proinsulin, the “therapeutic potency of mono-PI in contrast to multi-PI” value is “lower levels of therapeutic potency”.
For “C19-A3: fragment of PI, comprising residues C19-A3 (GSLQPLALEGSLQKRGIV; listed as Homo sapiens) [Group C19-A3]”, in the test on proinsulin, the “therapeutic potency of mono-PI in contrast to multi-PI” value is listed as “lower levels of therapeutic potency”.
Same read-out and setting: the result for “C22-A5: fragment of PI, comprising residues C22-A5 (QPLALEGSLQKRGIVEQ; listed as Homo sapiens) [Group C22-A5]” reads “lower levels of therapeutic potency”.
